Measurements taken from BindingDB's records for doi:10.1021/jm300579z (Merck Research Laboratories, 2012).

Biological target: Pituitary adenylate cyclase-activating polypeptide type I receptor (Homo sapiens) (UniProt P41586)
Assay: Antagonist activity at human PAC1 expressed in mouse […] 3T3 cells assessed as inhibition of glucagon-induced cAMP accumulation preincubated for 30 mins prior to glucagon challenge measured after 30 mins post glucagon challenge by liquid scintillation counter

Chain of Pituitary adenylate cyclase-activating polypeptide type I receptor (Homo sapiens) (P41586 whole entry, looked up): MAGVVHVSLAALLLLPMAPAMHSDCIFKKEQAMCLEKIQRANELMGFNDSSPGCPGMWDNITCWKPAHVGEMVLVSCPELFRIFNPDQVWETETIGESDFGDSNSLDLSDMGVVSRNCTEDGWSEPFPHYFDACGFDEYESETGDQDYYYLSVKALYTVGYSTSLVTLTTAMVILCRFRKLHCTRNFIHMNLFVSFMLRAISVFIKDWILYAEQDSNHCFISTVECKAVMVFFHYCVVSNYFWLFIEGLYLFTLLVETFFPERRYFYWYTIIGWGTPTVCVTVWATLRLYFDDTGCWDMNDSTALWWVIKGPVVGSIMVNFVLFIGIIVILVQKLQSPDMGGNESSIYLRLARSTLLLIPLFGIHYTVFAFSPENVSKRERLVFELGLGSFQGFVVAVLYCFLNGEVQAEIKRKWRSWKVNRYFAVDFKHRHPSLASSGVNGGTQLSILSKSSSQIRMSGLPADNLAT

With `COc1ccc2cc(-c3cc(-c4cc(Cl)cc(Cl)c4)nn3[C@@H](C)c3ccc(C(=O)NCCC(=O)O)cc3)ccc2c1` the IC50 was 9.2 µM.
